SMILES strings stand for the structures.

For this test, the target named is T1, Human HPK1, catalytic domain (Homo sapiens, UniProt Q92918).
T1 sequence (Q92918 1-346): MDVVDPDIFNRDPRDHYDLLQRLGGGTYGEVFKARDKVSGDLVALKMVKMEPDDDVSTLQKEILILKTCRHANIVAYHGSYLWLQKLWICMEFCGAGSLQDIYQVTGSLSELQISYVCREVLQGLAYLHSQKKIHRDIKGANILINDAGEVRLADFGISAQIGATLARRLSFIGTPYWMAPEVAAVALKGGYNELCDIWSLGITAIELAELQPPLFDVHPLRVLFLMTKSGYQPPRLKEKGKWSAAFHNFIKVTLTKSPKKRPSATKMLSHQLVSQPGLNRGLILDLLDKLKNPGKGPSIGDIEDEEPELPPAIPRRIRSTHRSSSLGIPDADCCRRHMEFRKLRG
Description: HPK1-SLP76 TR-FRET Assay. It counts as biochemical. To be noted: 75 pM HPK1, ATP 10 uM, SLP76 10 nM, 30 min pre-incubation, 60 min reaction.

The compound `COc1cc2c(cc1Nc1ncc3ccc(Nc4cccc(S(C)(=O)=O)c4)cc3n1)CN(C)CC2` [Compound 3-33, N~2~-(6-methoxy-2-methyl-1,2,3,4-tetrahydroisoquinolin-7-yl)-N~7~-[3-(methylsulfon-yl)phenyl]quinazoline-2,7-diamine] gave an IC50 of 18.4 nM. The compound `CNC(=O)c1ccc(-c2ccc3cnc(Nc4cc5c(cc4OC)CCN(C)C5)nc3c2)cn1` [Compound 1-21, 5-{2-[(6-methoxy-2-methyl-1,2,3,4-tetrahydroisoquinolin-7-yl)amino]quinazolin-7-yl}-N-methylpyridine-2-carboxamide] yielded an IC50 of 294 nM. Next, `COc1cc2c(cc1Nc1ncc3ccc(-c4cnc5c(c4C)NCCO5)cc3n1)CN(C)CC2` [Compound 1-4, N-(6-methoxy-2-methyl-1,2,3,4-tetrahydroisoquinolin-7-yl)-7-(8-methyl-2,3-dihydro-1H-pyrido[2,3-b][1,4]oxazin-7-yl)quinazolin-2-amine]: 1.51 nM; `Cc1c(-c2cc3nc(Nc4ccc5c(c4)CCN(C)CC5)ncc3c(N)c2F)cnc2c1NCCO2` [Compound 2-119, 6-fluoro-7-(8-methyl-2,3-dihydro-1H-pyrido[2,3-b][1,4]oxazin-7-yl)-N~2~- (3-methyl-2,3,4,5-tetrahydro-1H-3-benzazepin-7-yl)quinazoline-2,5-diamine]: 0.038 nM; `COc1cc2c(cc1Nc1ncc3ccc(NCc4cc(C)n(C)n4)cc3n1)CN(C)CC2` [Compound 3-72, N~7~-[(1,5-dimethyl-1H-pyrazol-3-yl)methyl]-N~2~-(6-methoxy-2-methyl-1,2,3,4-tetra-hydroisoquinolin-7-yl)quinaz-oline-2,7-diamine]: 290 nM. Next, `COc1cc2c(cc1Nc1ncc3ccc(NC[C@@H]4CCC(=O)N4)cc3n1)CN(C)CC2` [Compound 3-45, (5S)-5-[({2-[(6-methoxy-2-meth-yl-1,2,3,4-tetrahydroisoquinolin-7-yl)amino]quinazolin-7-yl}-amino)methyl]pyrrolidin-2-one]: 292 nM. In the case of `COc1cc2c(cc1Nc1ncc3ccc(NCC4(C)CCOC4)cc3n1)CN(C)CC2` (racemic) [Compound 3-75, (S and R)-N~2~-(6-methoxy-2-methyl-1,2,3,4-tetrahydroiso-quinolin-7-yl)-N~7~-[(3-meth-yloxolan-3-yl)methyl]quinaz-oline-2,7-diamine], the midpoint of inhibition, the IC50, lay at 90.1 nM. Next, `Cc1c(-c2cc3nc(Nc4ccc(CC(=O)N(C)C)cc4)ncc3cc2F)cnc2c1NCCO2` [Compound 1-132, 2-(4-{[6-fluoro-7-(8-methyl-2,3-dihydro-1H-pyrido[2,3-b][1,4]oxazin-7-yl)quinazolin-2-yl]amino}phenyl)-N,N-dimethylacetamide]: 0.132 nM; `CCS(=O)(=O)Cc1ccc(Nc2ncc3c(N)c(F)c(-c4cnc5c(c4C)NCCO5)cc3n2)cc1` [Compound 2-89, N2-(4-((ethylsulfonyl)methyl)phenyl)-6-fluoro-7-(8-methyl-2,3-dihydro-1H-pyrido[2,3-b][1,4]oxazin-7-yl)quinazoline-2,5-diamine]: 0.0117 nM; `COc1cc2c(cc1Nc1ncc3ccc(-c4cncc(S(C)(=O)=O)c4)cc3n1)CNCC2` [Compound 1-43, N-(6-methoxy-1,2,3,4-tetrahydroisoquinolin-7-yl)-7-[5-(methylsulfonyl)pyridin-3-yl]quinazolin-2-amine]: 82.8 nM. As for `COc1cc2c(cc1Nc1ncc3ccc(-c4c(C)cccc4F)cc3n1)CN(C)CC2` [Compound 1-5, 7-(2-fluoro-6-methylphenyl)-N-(6-methoxy-2-methyl-1,2,3,4-tetrahydroisoquinolin-7-yl)quinazolin-2-amine], the midpoint of inhibition, the IC50, lay at 230 nM.

The compound `COc1cc2c(cc1Nc1ncc3c(N)c(F)c(-c4cnc5c(c4C)NCCO5)cc3n1)CNCC2` [Compound 2-4, 6-fluoro-N~2~-(6-methoxy-1,2,3,4-tetrahydroisoquinolin-7-yl)-7-(8-methyl-2,3-dihydro-1H-pyrido[2,3-b][1,4]oxazin-7-yl)quinazoline-2,5-diamine] gave an IC50 of 0.979 nM. Next, `Cc1c(-c2c(F)c(N)c3cnc(Nc4cc5c(cc4F)CCN(C)C5)nc3c2Cl)cnc2c1NCCO2` [Compound 2-107, (+ or −)-8-chloro-6-fluoro-N2-(6-fluoro-2-methyl-1,2,3,4-tetrahydroisoquinolin-7-yl)-7-(8-methyl-2,3-dihydro-1H-pyrido[2,3-b][1,4]oxazin-7-yl)quinazoline-2,5-diamine]: 0.0862 nM. Next, `COc1cc2c(cc1Nc1ncc3ccc(-c4ccc5c(c4)CCCO5)cc3n1)CNCC2` [Compound 1-75, 7-(3,4-dihydro-2H-1-benzopyran-6-yl)-N-(6-methoxy-1,2,3,4-tetrahydroisoquinolin-7-yl)quinazolin-2-amine]: 91.6 nM. In the case of `Cc1c(-c2cc3nc(Nc4ccc5c(c4)CCS(=O)(=O)C5)ncc3c(N)c2F)cnc2c1NCCO2` [Compound 2-138, 6-{[5-amino-6-fluoro-7-(8-methyl-2,3-dihydro-1H-pyrido[2,3-b][1,4]oxazin-7-yl)quinazolin-2-yl]amino}-3,4-dihydro-2-benzothiopyran-2,2(1H)-dione], the concentration for half-maximal inhibition (IC50) is 0.068 nM.

Turning to `COc1cc2c(cc1Nc1ncc3ccc(Nc4cc(CO)ccn4)cc3n1)CN(C)CC2` [Compound 3-40, [2-({2-[(6-methoxy-2-methyl-1,2,3,4-tetrahydroisoquinolin-7-yl)amino]quinazolin-7-yl}-amino)pyridin-4-yl]methanol], the IC50 came out at 0.889 nM. The compound `COc1cc2c(cc1Nc1ncc3ccc(NC4(C(=O)N(C)C)CCC4)cc3n1)CN(C)CC2` [Compound 3-61, 1-({2-[(6-methoxy-2-methyl-1,2,3,4-tetrahydroisoquinolin-7-yl)amino]quinazolin-7-yl}-amino)-N,N-dimethylcyclo-butane-1-carboxamide] gave an IC50 of 824 nM. Then `COc1cc2c(cc1Nc1ncc3ccc(-c4ccc5c(c4)COCC5)cc3n1)CNCC2` [Compound 1-76, 7-(3,4-dihydro-1H-2-benzopyran-7-yl)-N-(6-methoxy-1,2,3,4-tetrahydroisoquinolin-7-yl)quinazolin-2-amine], with 218 nM.

Take `Cc1c(-c2cc3nc(Nc4ccc(C5CCN(C)C5=O)cc4)ncc3c(N)c2F)cnc2c1NCCO2` (single isomer, unassigned) [Compound 2-147, (R or S)-3-(4-{[5-amino-6-fluoro-7-(8-methyl-2,3-dihydro-1H-pyrido[2,3-b][1,4]oxazin-7-yl)quinazolin-2-yl]amino}phenyl)-1-methylpyrrolidin-2-one]: the IC50 was 0.0753 nM. Next, `COc1cc2c(cc1Nc1ncc3cc(C#N)c(-c4cnc5c(c4C)NCCO5)cc3n1)CN(C)CC2` [Compound 1-97, 2-[(6-methoxy-2-methyl-1-1,2,3,4-tetrahydroisoquinolin-7-yl)amino]-7-(8-methyl-2,3-dihydro-1H-pyrido[2,3-b][1,4]oxazin-7-yl)quinazoline-6-carbonitrile]: 53.8 nM; `COc1cc2c(cc1Nc1ncc3ccc(-c4ccccc4)cc3n1)CN(C)CC2` [Compound 1-1, N-(6-methoxy-2-methyl-1,2,3,4-tetrahydroisoquinolin-7-yl)-7-phenylquinazolin-2-amine]: 140 nM; `COc1ncccc1Nc1ncc2c(N)c(F)c(-c3cnc4c(c3C)NCCO4)cc2n1` [Compound 2-27, 6-fluoro-N~2~-(2-methoxypyridin-3-yl)-7-(8-methyl-2,3-dihydro-1H-pyrido[2,3-b][1,4]oxazin-7-yl)quinazoline-2,5-diamine]: 0.117 nM. On to `COc1cc2c(cc1Nc1ncc3ccc(N[C@H]4CCCOCC4)cc3n1)CN(C)CC2` [Compound 3-47, (S)-N2-(6-methoxy-2-methyl-1,2,3,4-tetrahydroisoquinolin-7-yl)-N7-(oxepan-4-yl)quinaz-oline-2,7-diamine], for which the 50% inhibitory concentration (IC50) is 170 nM. Next, `COc1cc2c(cc1Nc1ncc3ccc(-c4cnc(C(C)(C)O)s4)cc3n1)CN(C)CC2` [Compound 1-15, 2-(5-{2-[(6-methoxy-2-methyl-1,2,3,4-tetrahydroisoquinolin-7-yl)amino]quinazolin-7-yl}-1,3-thiazol-2-yl)propan-2-ol]: 42.7 nM; `COc1cc2c(cc1Nc1ncc3ccc(OCC4CCN(c5cncc(C)n5)CC4)cc3n1)CN(C)CC2` [Compound 4-4, N-(6-methoxy-2-methyl-1,2,3,4-tetrahydroisoquin-olin-7-yl)-7-{[1-(6-methyl-pyrazin-2-yl)piperidin-4-yl]methoxy}quinazolin-2-amine]: 158 nM. Then `COc1cc2c(cc1Nc1ncc3ccc(N4CCn5c(C)nnc5C4)cc3n1)CN(C)CC2` [Compound 3-57, N-(6-methoxy-2-methyl-1,2,3,4-tetrahydroisoquinolin-7-yl)-7-(3-methyl-5,6-dihydro[1,2,4]-triazolo[4,3-a]pyrazin-7(8H)-yl)quinazolin-2-amine], with 799 nM; and `COc1cc2c(cc1Nc1ncc3c(N)c(F)c(-c4cnc(-c5ncco5)cc4C)cc3n1)CN(C)CC2` [Compound 2-61, 6-fluoro-N~2~-(6-methoxy-2-methyl-1,2,3,4-tetrahydroisoquinolin-7-yl)-7-[4-methyl-6-(1,3-oxazol-2-yl)pyridin-3-yl]quinazoline-2,5-diamine], with 1.27 nM. Next, `CNC(=O)c1ccc(Nc2ncc3c(N)cc(N4C(=O)OC[C@@H]4C)cc3n2)cc1` [Compound 3-79]: 0.255 nM. For `Cc1c(-c2c(F)c(N)c3cnc(Nc4ccc(CS(=O)(=O)C5CC5)cc4)nc3c2Cl)cnc2c1NCCO2` [Compound 2-132, 8-chloro-N2-(4-((cyclopropylsulfonyl)methyl)phenyl)-6-fluoro-7-(8-methyl-2,3-dihydro-1H-pyrido[2,3-b][1,4]oxazin-7-yl)quinazoline-2,5-diamine], 2.78 nM corresponded to half-maximal inhibition (IC50).

(Values after US20230399341A1, “7-PHENYL SUBSTITUTED 2-AMINOQUINAZOLINE INHIBITORS OF HPK1” (MERCK SHARP & DOHME LLC, priority 2020, published 2023).)
